From patent US20220324909A1, “THERAPEUTIC PEPTIDES” (COHBAR, INC., priority 2019, published 2022)
Non-standard residues stand in square brackets, D forms with d. No end group written: not given here.

How the values were obtained:
[1] = test system: H4-IIE cells; assay: Glucose production in cultured H4-IIE cells and insulin dependence; format: cell-based, rat; conditions: 24 h; for Glucose Production, Percent of Control Activity No Insulin: peptide 10 μM alone, relative to untreated cells; for Glucose Production, Percent of Control Activity With Insulin: peptide 10 μM with 800 μM insulin, relative to insulin treated cells
In short: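 Rat hepatoma cells incubated 24 h with peptides; glucose released into conditioned medium measured colorimetrically at 570 nm. Untreated cells serve as maximal-production reference, with insulin at […] as a modest inhibitor. Values are means of 2-4 independent experiments run in triplicate.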

[2] = test system: 3T3-L1 mouse adipocytes; assay: Free fatty acid levels in 3T3-L1 mouse adipocytes (Example 12, 10 μM); format: cell-based; conditions: peptide 10 μM, 20-22 h then 3 h with isoproterenol 1 nM
Procedure: The effect of the peptides on fatty acid metabolism can be assessed using an assay of free fatty acid levels in cultured cells such as mouse adipocytes. Peptides were initially prepared as 10 mM stock in DMSO, diluted to 1 mM in H2O, and used at a final concentration of 10 μM (0.1% DMSO). […] Insulin at 100 nM was added to control wells.

[3] = test system: C2C12 cells; assay: Glucose utilization in cultured C2C12 cells and insulin dependence; format: cell-based, mouse; conditions: 22 h; for Glucose Utilization, Percent of Control Activity No Insulin: peptide 10 μM alone, glucose in medium relative to untreated cells; for Glucose Utilization, Percent of Control Activity With Insulin: peptide 10 μM with 5-20 nM insulin, glucose in medium relative to insulin treated cells
In short: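 Differentiated C2C12 myotubes in low-glucose DMEM were treated 22 h with 10 μM peptide, alone or with 5-20 nM insulin; 1 mM metformin served as control. Medium glucose was measured by absorbance at 570 nm and expressed as percent of untreated cells (no insulin) or insulin-only cells, averaged from 2-3 experiments in triplicate.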

[4] = test system: C2C12 cells; assay: Caspase 3/7 activity in C2C12 cells; format: cell-based, mouse; conditions: peptide 10 μM, 24 hours, relative to 0.1% DMSO control
Procedure: The effect of the peptides on cell death/survival can be assessed using a caspase-3/7 assay in cultured cells such as mouse myoblast cells. Peptides were initially prepared as 10 mM stock in DMSO, diluted to 1 mM in H2O, and used at a final concentration of 10 μM (0.1% DMSO). […] Staurosporine (Abcam, Cambridge, Mass.) was dissolved at 10 mM in DMSO as a stock solution. Caspase-Glo 3/7 Assay Reagent was purchased from Promega (Madison, Wis.). C2C12 cell line was purchased from American Type Culture Collection (Manassas, Va.). C2C12 cells were grown in DMEM supplemented with 20% FBS with 100 IU/ml penicillin and 100 μg/ml streptomycin. […] C2C12 cells were seeded at 4,000 cells per well on 96-well plates. […] Caspase 3/7 activity was determined using a Caspase-Glo 3/7 Assay kit according to the manufacturer's instructions. Luminescence for each sample well on the plate was measured using a Cytation 3 plate reader (BioTek, Winooski, Vt.). Activity was calculated relative to 0.1% DMSO control.

[5] = test system: C2C12 cells; assay: Cell proliferation in C2C12 cells (Cyquant DNA dye binding); format: cell-based, mouse; conditions: peptide 10 μM, 72 hours with readdition every 24 hours, relative to 0.1% DMSO control
Procedure: The effect of the peptides on cell proliferation was assessed using a DNA dye binding assay in cultured cells such as mouse myoblast cells. Peptides were initially prepared as 10 mM stock in DMSO, diluted to 1 mM in H2O, and added at a final concentration of 10 μM (0.1% DMSO). Lovastatin was used as a growth arrest control at final concentration of 10 μM. […] C2C12 cells were grown in DMEM supplemented with 20% FBS with 100 IU/ml penicillin and 100 μg/ml streptomycin. […] C2C12 cells were seeded at 800 cells per well on 96-well plates. […] Cell proliferation was determined using Cyquant Direct Nucleic Acid Stain (Thermo Fisher Scientific, Waltham, Mass.) according to the manufacturer's instructions. Fluorescence for each sample well on the plate was measured using a Cytation 3 plate reader at Ex/Em=495/535 nm (BioTek, Winooski, Vt.). Activity was calculated relative to 0.1% DMSO untreated control. The relative standard deviation for the lovastatin control was <27%. The cell proliferation for the lovastatin control was <25% of the value for untreated control.

[6] = test system: 3T3-L1 mouse adipocytes; assay: Free fatty acid levels in cultured 3T3-L1 mouse adipocytes and insulin dependence (Example 17); format: cell-based; conditions: isoproterenol 0.1 nM; for Free Fatty Acid Levels, Percent of Isoproterenol Control Activity No Insulin: peptide 10 μM alone, relative to isoproterenol treated cells; for Free Fatty Acid Levels, Percent of Isoproterenol Control Activity With Insulin: peptide 10 μM with 0.25 nM insulin, relative to 0.25 nM insulin treated cells

Row | Molecule | Glucose Production, Percent of Control Activity No Insulin [1] [%] | Glucose Production, Percent of Control Activity With Insulin [1] [%] | Free Fatty Acid Levels, Percent of Isoproterenol Control Activity [2] [%] | Glucose Utilization, Percent of Control Activity No Insulin [3] [%] | Glucose Utilization, Percent of Control Activity With Insulin [3] [%] | Caspase 3/7 Activity, Percent of Control Activity [4] [%] | Cell Proliferation, Percent of Control [5] [%] | Free Fatty Acid Levels, Percent of Isoproterenol Control Activity No Insulin [6] [%] | Free Fatty Acid Levels, Percent of Isoproterenol Control Activity With Insulin [6] [%]
1 | 19 (RRMVFQCLCG[dA]; cysteine pairing not given here) [compound 19] | 100.8 | 68.9 | 31.0 | 100.1 | 76.5 | 100.1 | 92.3 | 105 | 79.0
2 | CSCC[C@H](NC(=O)CNC(=O)[C@H](CCSC)NC(=O)[C@H](CCSC)NC(=O)[C@H](CCCNC(=N)N)NC(=O)[C@H](CCCNC(=N)N)NC(=O)[C@@H](N)CCSC)C(=O)N[C@H](C(=O)N[C@@H](Cc1ccccc1)C(=O)N[C@@H](CCC(N)=O)C(=O)N[C@@H](CS)C(=O)N[C@@H](CC(C)C)C(=O)N[C@@H](CS)C(=O)NCC(=O)N[C@@H](CC(C)C)C(=O)O)C(C)C [compound 7] | 54.2 | 64.2 | 34.6 | 98.1 | 100.7 | 109.4 | 94.0 | 102 | 71.3
3 | CSCC[C@H](NC(=O)CNC(=O)[C@H](CCSC)NC(=O)[C@H](CCSC)NC(=O)[C@H](CCCNC(=N)N)NC(=O)[C@@H](N)CCCNC(=N)N)C(=O)N[C@H](C(=O)N[C@@H](Cc1ccccc1)C(=O)N[C@@H](CCC(N)=O)C(=O)N[C@@H](CO)C(=O)N[C@@H](CC(C)C)C(=O)N[C@@H](CS)C(=O)NCC(=O)N[C@H](C)C(=O)O)C(C)C [compound 15] | 101.4 | 63.9 | 90.8 | 103 | 106.9 | 101.6 | 93.5 | 109 | 89.0
